Measurements reported in ChEMBL document CHEMBL1140066, “3,4-Dihydro-2H-1,4-benzoxazine derivatives combining thrombin inhibitory and glycoprotein IIb/IIIa receptor antagonistic activity as a novel class of antithrombotic compounds with dual function” (J Med Chem, 2008).
The source made the active and inactive calls. The rule behind the calls is not given here.

Columns and labels:
[1] = target: Prothrombin (Homo sapiens, UniProt P00734)
[2] = Selectivity for thrombin over trypsin
[3] = target: Coagulation factor X (Homo sapiens, UniProt P00742); experiment: Inhibition of factor 10a
[4] = Selectivity for thrombin over factor 10a
[5] = target: Integrin alpha-IIb/beta-3 (Homo sapiens, UniProt P05106+P08514); experiment: Inhibition of fibrinogen binding to human platelet GPIIb/IIIa receptor
[6] = test system: Platelet; experiment: Inhibition of ADP-induced platelet aggregation in human platelet rich plasma at 50 uM; format: functional
[7] = test system: Platelet; experiment: Inhibition of ADP-induced platelet aggregation in human platelet rich plasma; format: functional, cell-free

Coagulation factor X, sequence (P00742 41-179 limits assumed): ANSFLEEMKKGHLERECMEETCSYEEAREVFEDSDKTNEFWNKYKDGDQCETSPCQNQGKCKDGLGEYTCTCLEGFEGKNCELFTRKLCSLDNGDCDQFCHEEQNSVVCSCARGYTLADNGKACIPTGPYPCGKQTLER
Coagulation factor X, sequence (P00742 235-488 limits assumed): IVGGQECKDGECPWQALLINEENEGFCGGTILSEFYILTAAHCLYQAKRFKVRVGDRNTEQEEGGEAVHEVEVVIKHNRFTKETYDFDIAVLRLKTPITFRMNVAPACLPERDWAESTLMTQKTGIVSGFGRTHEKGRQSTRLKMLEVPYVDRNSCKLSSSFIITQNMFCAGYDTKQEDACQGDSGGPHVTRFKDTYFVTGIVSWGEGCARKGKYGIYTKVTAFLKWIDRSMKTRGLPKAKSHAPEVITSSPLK
Integrin alpha-IIb/beta-3, sequence (P05106 27-788 limits assumed): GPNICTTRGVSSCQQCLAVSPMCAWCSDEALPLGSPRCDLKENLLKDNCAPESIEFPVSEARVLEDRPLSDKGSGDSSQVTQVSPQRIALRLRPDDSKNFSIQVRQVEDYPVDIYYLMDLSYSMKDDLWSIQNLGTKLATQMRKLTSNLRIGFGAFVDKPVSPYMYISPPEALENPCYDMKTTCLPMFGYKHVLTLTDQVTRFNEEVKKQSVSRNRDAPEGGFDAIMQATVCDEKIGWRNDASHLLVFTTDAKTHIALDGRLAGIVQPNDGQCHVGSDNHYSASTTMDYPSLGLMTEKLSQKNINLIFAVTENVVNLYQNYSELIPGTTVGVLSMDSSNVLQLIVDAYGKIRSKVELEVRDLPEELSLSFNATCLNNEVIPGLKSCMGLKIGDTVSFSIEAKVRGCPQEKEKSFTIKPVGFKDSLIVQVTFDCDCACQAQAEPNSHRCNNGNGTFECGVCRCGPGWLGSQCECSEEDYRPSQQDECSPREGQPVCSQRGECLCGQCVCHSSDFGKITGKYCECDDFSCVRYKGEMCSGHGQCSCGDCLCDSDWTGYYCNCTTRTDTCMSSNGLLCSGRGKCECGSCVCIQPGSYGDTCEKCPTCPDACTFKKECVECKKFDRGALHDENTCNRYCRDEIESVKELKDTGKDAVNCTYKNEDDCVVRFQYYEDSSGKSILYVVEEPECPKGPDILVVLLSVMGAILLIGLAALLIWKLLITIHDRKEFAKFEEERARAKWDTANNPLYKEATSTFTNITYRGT
Integrin alpha-IIb/beta-3, sequence (P08514 32-887 limits assumed): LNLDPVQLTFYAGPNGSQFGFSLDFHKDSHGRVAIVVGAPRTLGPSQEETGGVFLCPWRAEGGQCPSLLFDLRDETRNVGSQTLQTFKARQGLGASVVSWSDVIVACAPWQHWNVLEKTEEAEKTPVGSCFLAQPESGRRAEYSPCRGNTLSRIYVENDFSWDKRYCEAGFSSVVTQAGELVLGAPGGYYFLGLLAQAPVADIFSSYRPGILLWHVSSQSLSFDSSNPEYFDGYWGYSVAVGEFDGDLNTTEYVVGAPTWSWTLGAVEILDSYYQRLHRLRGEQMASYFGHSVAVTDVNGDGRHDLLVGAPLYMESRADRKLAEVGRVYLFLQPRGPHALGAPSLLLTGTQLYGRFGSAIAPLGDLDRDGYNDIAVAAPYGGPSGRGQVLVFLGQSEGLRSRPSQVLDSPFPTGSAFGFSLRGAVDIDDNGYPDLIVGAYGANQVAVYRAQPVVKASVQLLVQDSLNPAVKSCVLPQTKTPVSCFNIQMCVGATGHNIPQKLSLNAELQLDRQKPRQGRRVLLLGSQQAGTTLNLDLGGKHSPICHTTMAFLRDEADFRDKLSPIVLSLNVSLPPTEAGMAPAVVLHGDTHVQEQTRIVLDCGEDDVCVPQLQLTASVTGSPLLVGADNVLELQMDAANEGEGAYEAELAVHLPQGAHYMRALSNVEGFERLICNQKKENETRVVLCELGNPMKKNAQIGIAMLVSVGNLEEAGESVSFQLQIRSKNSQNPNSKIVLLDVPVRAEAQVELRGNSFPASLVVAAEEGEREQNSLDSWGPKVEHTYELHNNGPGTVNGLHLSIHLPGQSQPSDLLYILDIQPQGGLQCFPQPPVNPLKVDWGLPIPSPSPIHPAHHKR
Integrin alpha-IIb/beta-3, sequence (P08514 891-1039 limits assumed): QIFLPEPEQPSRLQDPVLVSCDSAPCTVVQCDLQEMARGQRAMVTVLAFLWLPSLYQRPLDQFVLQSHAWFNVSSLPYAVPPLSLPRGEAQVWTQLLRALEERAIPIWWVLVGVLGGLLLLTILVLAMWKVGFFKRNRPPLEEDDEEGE

| SMILES | Ki [1] | Selectivity ratio [2] | Ki [3] | Selectivity ratio [4] | IC50 [5] | inhibition at 50 µM [6] | IC50 [7] | Activity [6] |
| --- | --- | --- | --- | --- | --- | --- | --- | --- |
| CN1C(=O)C(OCc2ccc(C(=N)N)cc2)Oc2cc(C(=O)NCCC(=O)O)ccc21 (stereo unspecified) | 118 µM | 0.2 | 112 µM | 1 | 15.2 µM | 23% | – | – |
| CCOC(=O)CN(Cc1ccccc1)c1ccc2c(c1)N(C)CC(C)(COc1ccc(C(=N)N)cc1)O2 (stereo unspecified) | – | – | 11.9 µM | – | 0.73 µM | 13% | – | – |
| CN1CC(C)(COc2ccc(C(=N)N)cc2)Oc2ccc(N(Cc3ccccc3)C(=O)C(=O)O)cc21 (stereo unspecified) | – | – | 31.7 µM | – | > 100 µM | – | – | – |
| CN1CC(C)(COc2ccc(C(=N)N)cc2)Oc2cc(N(Cc3ccccc3)C(=O)C(=O)O)ccc21 (stereo unspecified) | – | – | 16.6 µM | – | > 100 µM | 26% | – | – |
| CN1CC(C)(COc2ccc(C(=N)N)cc2)Oc2cc(NC(=O)C(Cc3ccccc3)C(=O)O)ccc21 (stereo unspecified) | 5.5 µM | – | – | – | – | – | 24.9 µM | – |
| CN1C(=O)C(OCc2ccc(C(=N)N)cc2)Oc2cc(C(=O)Nc3ccccc3)ccc21 (stereo unspecified) | 24.2 µM | 0.7 | 31.6 µM | 1.3 | 12.1 µM | 19% | – | – |
| COC(=O)C(Cc1ccccc1)C(=O)Nc1ccc2c(c1)OC(C)(COc1ccc(C(=N)N)cc1)CN2C (stereo unspecified) | 2.86 µM | 1.7 | 35.4 µM | 12 | 9.11 µM | 21% | – | – |
| CCOC(=O)CN(C(=O)c1ccc2c(c1)OC(OCc1ccc(C(=N)N)cc1)C(=O)N2C)c1ccccc1 (stereo unspecified) | 3.98 µM | 4.6 | 43.1 µM | 11 | 28.4 µM | 10% | – | – |
| CCOC(=O)C[C@H](NC(=O)c1ccc2c(c1)OC(OCc1ccc(C(=N)N)cc1)C(=O)N2C)c1ccccc1 (stereo partly specified) | – | – | 54.6 µM | – | 24.6 µM | – | – | – |
| CCOC(=O)CN(Cc1ccccc1)c1ccc2c(c1)OC(C)(COc1ccc(C(=N)N)cc1)CN2C (stereo unspecified) | 0.38 µM | 4.5 | 2.67 µM | 7 | 1.45 µM | 19% | – | – |
| CCOC(=O)C(=O)N(Cc1ccccc1)c1ccc2c(c1)N(C)CC(C)(COc1ccc(C(=N)N)cc1)O2 (stereo unspecified) | – | – | 16 µM | – | 1.2 µM | 24% | – | – |
| CN1C(=O)C(OCc2ccc(C(=N)N)cc2)Oc2cc(C(=O)N[C@@H](CC(=O)O)c3ccccc3)ccc21 (stereo partly specified) | 14.9 µM | – | > 200 µM | – | 1.64 µM | – | – | – |
| CCOC(=O)C(Cc1ccccc1)C(=O)Nc1ccc2c(c1)N(C)CC(C)(COc1ccc(C(=N)N)cc1)O2 (stereo unspecified) | 4.93 µM | 0.6 | 29.5 µM | 6 | 36.5 µM | 8% | – | – |
| CCOC(=O)CCC(=O)N(Cc1ccccn1)c1ccc2c(c1)OC(C)(COc1ccc(C(=N)N)cc1)CN2C (stereo unspecified) | 0.025 µM | 56 | 11.8 µM | 472 | 11.3 µM | 15% | – | – |
| CCOC(=O)CCC(=O)N(Cc1ccccc1)c1ccc2c(c1)OC(C)(COc1ccc(C(=N)N)cc1)CN2C (stereo unspecified) | 0.06 µM | 19 | 18 µM | 300 | 29.3 µM | – | – | inactive |
| CCOC(=O)C(C(=O)Nc1ccc2c(c1)OC(OCc1ccc(C(=N)N)cc1)C(=O)N2C)c1ccccc1 (stereo unspecified) | 9.89 µM | 1.5 | 50.3 µM | 5.1 | 2.44 µM | 23% | – | – |
| CN1CC(C)(COc2ccc(C(=N)N)cc2)Oc2cc(NC(=O)CCC(=O)O)ccc21 (stereo unspecified) | 5.16 µM | 0.3 | 33.8 µM | 6.6 | 1.69 µM | – | 36.7 µM | – |
| CN1C(=O)C(OCc2ccc(C(=N)N)cc2)Oc2cc(C(=O)N(CC(=O)O)c3ccccc3)ccc21 (stereo unspecified) | 1.76 µM | 9.4 | 49.6 µM | 28 | > 100 µM | 24% | – | – |
| CCOC(=O)C(=O)N(Cc1ccccc1)c1ccc2c(c1)OC(C)(COc1ccc(C(=N)N)cc1)CN2C (stereo unspecified) | – | – | 112 µM | – | 2 µM | 21% | – | – |
| CCOC(=O)CCC(=O)N(Cc1ccccc1)c1ccc2c(c1)N(C)CC(C)(COc1ccc(C(=N)N)cc1)O2 (stereo unspecified) | – | – | 27.7 µM | – | > 100 µM | – | – | inactive |
| CN1CC(C)(COc2ccc(C(=N)N)cc2)Oc2cc(N(Cc3ccccc3)C(=O)CCC(=O)O)ccc21 (stereo unspecified) | – | – | 29.7 µM | – | > 100 µM | 14% | – | – |
| CCOC(=O)CCC(=O)Nc1ccc2c(c1)OC(C)(COc1ccc(C(=N)N)cc1)CN2C (stereo unspecified) | 16.9 µM | 0.4 | 74.7 µM | 4.4 | 14 µM | 15% | – | – |
| CCOC(=O)CN(C(=O)c1ccccc1)c1ccc2c(c1)OC(C)(COc1ccc(C(=N)N)cc1)CN2C (stereo unspecified) | 0.156 µM | 12 | 9.59 µM | 47 | 1.78 µM | 21% | – | – |
| CN1CC(C)(COc2ccc(C(=N)N)cc2)Oc2cc(NC(=O)c3ccccc3)ccc21 (stereo unspecified) | 5 µM | 0.3 | 12.1 µM | 2.4 | 2.85 µM | 21% | – | – |
